# Laboratory results taken from article PMC8169668, “Discovery of a cooperative mode of inhibiting RIPK1 kinase” (Cell Discovery, 2021).
# Legend:
# Type in all cases: cell-based
# RIPK1 [1] = biological target: T1, RIPK1 (Homo sapiens, UniProt Q13546, S161A); experiment: CETSA; p-S166 autophosphorylation blot
# T1 construct: HA-tagged hRIPK1 S161A reconstituted in RIPK1-deficient Jurkat cells
# T1 sequence (Q13546 1-671 S161A): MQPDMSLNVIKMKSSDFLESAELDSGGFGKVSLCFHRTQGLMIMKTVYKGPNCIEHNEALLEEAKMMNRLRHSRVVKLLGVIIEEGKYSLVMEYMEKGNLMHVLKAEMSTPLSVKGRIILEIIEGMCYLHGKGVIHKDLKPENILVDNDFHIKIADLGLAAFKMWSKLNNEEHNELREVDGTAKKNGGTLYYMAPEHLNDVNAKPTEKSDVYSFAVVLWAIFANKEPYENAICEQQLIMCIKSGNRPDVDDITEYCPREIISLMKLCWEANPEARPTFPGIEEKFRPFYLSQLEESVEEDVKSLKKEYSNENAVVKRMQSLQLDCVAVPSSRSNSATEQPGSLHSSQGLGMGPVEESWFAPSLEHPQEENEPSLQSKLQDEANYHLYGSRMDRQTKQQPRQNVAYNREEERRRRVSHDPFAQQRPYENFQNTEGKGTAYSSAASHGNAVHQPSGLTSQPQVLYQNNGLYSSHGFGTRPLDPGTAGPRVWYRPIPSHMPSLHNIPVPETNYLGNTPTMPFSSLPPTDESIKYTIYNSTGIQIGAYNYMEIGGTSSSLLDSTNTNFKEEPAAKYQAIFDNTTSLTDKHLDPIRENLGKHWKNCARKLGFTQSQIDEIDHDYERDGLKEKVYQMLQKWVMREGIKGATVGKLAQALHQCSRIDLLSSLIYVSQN
# RIPK1 [2] = biological target: T2, RIPK1 (Mus musculus, UniProt Q60855); experiment: CETSA in MEFs; p-S166 blot of mRIPK1-FKBP in L929 cells
# T2 construct: endogenous RIPK1 (MEFs)
# T2 sequence (Q60855 1-656): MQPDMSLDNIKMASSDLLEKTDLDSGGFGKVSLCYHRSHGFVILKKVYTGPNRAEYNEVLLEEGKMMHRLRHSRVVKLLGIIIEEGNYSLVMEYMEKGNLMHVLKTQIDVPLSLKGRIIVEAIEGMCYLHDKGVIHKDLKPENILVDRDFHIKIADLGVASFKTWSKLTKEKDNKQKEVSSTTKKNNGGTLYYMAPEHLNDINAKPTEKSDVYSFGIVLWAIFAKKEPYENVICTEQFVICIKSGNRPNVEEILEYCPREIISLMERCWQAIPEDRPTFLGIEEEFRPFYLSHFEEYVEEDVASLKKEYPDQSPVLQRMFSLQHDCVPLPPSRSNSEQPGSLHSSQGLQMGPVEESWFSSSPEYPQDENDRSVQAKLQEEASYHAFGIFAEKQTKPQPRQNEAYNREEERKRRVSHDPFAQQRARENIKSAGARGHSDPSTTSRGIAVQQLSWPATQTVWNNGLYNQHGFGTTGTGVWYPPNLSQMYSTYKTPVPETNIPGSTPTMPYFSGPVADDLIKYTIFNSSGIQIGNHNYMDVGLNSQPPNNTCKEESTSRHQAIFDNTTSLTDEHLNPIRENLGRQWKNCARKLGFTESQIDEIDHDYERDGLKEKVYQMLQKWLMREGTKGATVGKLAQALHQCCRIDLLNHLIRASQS
# RIPK1 [3] = biological target: T3, RIPK1 (Homo sapiens, UniProt Q13546, L159V/D180S); experiment: p-S166 autophosphorylation blot, dose response
# T3 construct: residues 1–330, Flag-tagged, in 293T cells
# T3 sequence (Q13546 1-330 L159V/D180S): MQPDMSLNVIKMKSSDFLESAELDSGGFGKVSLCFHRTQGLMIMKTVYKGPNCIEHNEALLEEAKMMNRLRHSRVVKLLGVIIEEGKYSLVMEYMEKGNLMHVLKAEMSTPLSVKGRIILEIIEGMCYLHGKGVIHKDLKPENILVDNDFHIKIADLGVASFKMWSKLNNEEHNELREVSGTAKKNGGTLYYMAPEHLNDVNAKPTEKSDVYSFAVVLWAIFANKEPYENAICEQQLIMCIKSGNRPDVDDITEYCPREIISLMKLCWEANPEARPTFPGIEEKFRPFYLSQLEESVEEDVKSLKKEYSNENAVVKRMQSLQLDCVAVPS
structure (smiles),measurement,setting,value
Cc1ccc(C2CC(=O)NC(SCC(=O)Nc3nccs3)=C2C#N)cc1 (stereo not drawn) [Nec-34],CETSA; p-S166 autophosphorylation blot,RIPK1 [1],Nec-34 stabilized reconstituted S161A mutant RIPK1 as well as WT-RIPK1 in the soluble fraction under elevated temperatures
same,CETSA in MEFs; p-S166 blot of mRIPK1-FKBP in L929 cells,RIPK1 [2],Nec-34 is able to bind endogenous RIPK1 in situ to increase its thermo-resistance
same,"p-S166 autophosphorylation blot, dose response",RIPK1 [3],Nec-34 was more potent in inhibiting L159V/D180S hRIPK1 than WT-hRIPK1
